Measurements as given in patent US20090131431A1, “Pyrazolo[3,4-b]pyridine compounds, and their use as a PDE4 inhibitors” (priority 2005, published 2009).
Structures can show the parent of a compound that is named as a salt.

The compounds below were run against T1, PDE4B (human recombinant) (Homo sapiens, UniProt Q07343) (assay: Inhibition of PDE4B activity: SPA and/or Fluorescence Polarisation (FP) assay). Conditions: one reading (n=1) or average of 2 or more readings, read-out: PDE4B pIC50 (±about 0.5) (converted).
T1 construct: made in house
Assay type: biochemical
Method in brief: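 Human recombinant PDE4B activity measured by SPA with [3H]cAMP at about 10 nM, 1 h at ambient temperature, enzyme set for ≤20% substrate hydrolysis, or by IMAP FP with Fl-cAMP at about 40 nM, 40 min at ambient temperature under linear conditions. Inhibition curves fitted; values reported as pIC50.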

T1 sequence (Q07343 1-564 isoform Q07343-2): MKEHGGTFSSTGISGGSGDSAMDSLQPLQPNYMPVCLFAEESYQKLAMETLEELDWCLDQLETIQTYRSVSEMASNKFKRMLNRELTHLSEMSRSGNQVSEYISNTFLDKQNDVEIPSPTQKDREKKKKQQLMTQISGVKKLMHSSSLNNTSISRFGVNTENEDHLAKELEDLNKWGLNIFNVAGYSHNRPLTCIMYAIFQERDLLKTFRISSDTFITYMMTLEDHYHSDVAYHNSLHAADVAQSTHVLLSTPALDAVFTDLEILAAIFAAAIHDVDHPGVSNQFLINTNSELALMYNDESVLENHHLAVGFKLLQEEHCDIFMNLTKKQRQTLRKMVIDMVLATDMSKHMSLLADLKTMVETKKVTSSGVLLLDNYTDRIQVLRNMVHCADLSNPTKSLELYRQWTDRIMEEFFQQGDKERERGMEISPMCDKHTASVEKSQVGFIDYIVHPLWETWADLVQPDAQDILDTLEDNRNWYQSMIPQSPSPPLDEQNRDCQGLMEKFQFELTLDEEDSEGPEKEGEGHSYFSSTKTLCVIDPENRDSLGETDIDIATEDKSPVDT

| Compound | IC50 [nM] |
| --- | --- |
| CCn1ncc2c(NC3CCOCC3)c(CNC(=O)c3ccc(C(C)(C)C)cc3)c(C)nc21 [Example 277, 4-(1,1-dimethylethyl)-N-{[1-ethyl-6-methyl-4-(tetrahydro-2H-pyran-4-ylamino)-1H-pyrazolo[3,4-b]pyridin-5-yl]methyl}benzamide] | 0.01 to 0.1 |
| CCn1ncc2c(NC3CCOCC3)c(CNC(=O)c3ccc(C(C)C)cc3)c(C)nc21 [Example 278, N-{[1-ethyl-6-methyl-4-(tetrahydro-2H-pyran-4-ylamino)-1H-pyrazolo[3,4-b]pyridin-5-yl]methyl}-4-(1-methylethyl)benzamide] | 0.01 to 0.1 |
| CCn1ncc2c(NC3CCOCC3)c(CNC(=O)c3ccc(C(N)=O)cc3)c(C)nc21 [Example 279, N-{[1-ethyl-6-methyl-4-(tetrahydro-2H-pyran-4-ylamino)-1H-pyrazolo[3,4-b]pyridin-5-yl]methyl}-1,4-benzenedicarboxamide] | 0.126 to 1 |
| CCn1ncc2c(NC3CCOCC3)c(CNC(=O)c3cccc(NC(C)=O)c3)c(C)nc21 [Example 280, 3-(acetylamino)-N-{[1-ethyl-6-methyl-4-(tetrahydro-2H-pyran-4-ylamino)-1H-pyrazolo[3,4-b]pyridin-5-yl]methyl}benzamide] | 0.01 to 0.1 |
| CCn1ncc2c(NC3CCOCC3)c(CNC(=O)c3ccc(C)cc3O)c(C)nc21 [Example 281, N-{[1-ethyl-6-methyl-4-(tetrahydro-2H-pyran-4-ylamino)-1H-pyrazolo[3,4-b]pyridin-5-yl]methyl}-2-hydroxy-4-methylbenzamide] | 0.01 to 0.1 |
| CCn1ncc2c(NC3CCOCC3)c(CNC(=O)c3ccccc3F)c(C)nc21 [Example 282, N-{[1-ethyl-6-methyl-4-(tetrahydro-2H-pyran-4-ylamino)-1H-pyrazolo[3,4-b]pyridin-5-yl]methyl}-2-fluorobenzamide] | 0.126 to 1 |
| CCn1ncc2c(NC3CCOCC3)c(CNC(=O)c3ccc(C(=O)NC)cc3)c(C)nc21 [Example 283, N-{[1-ethyl-6-methyl-4-(tetrahydro-2H-pyran-4-ylamino)-1H-pyrazolo[3,4-b]pyridin-5-yl]methyl}-N′-methyl-1,4-benzenedicarboxamide] | 0.126 to 1 |
| CCn1ncc2c(NC3CCOCC3)c(CNC(=O)c3ccc4c(c3)CCC4)c(C)nc21 [Example 284, N-{[1-ethyl-6-methyl-4-(tetrahydro-2H-pyran-4-ylamino)-1H-pyrazolo[3,4-b]pyridin-5-yl]methyl}-2,3-dihydro-1H-indene-5-carboxamide] | 0.126 to 1 |
| CCn1ncc2c(NC3CCOCC3)c(CNC(=O)c3ccc(C(C)(C)C)cc3O)c(C)nc21 [Example 285, 4-(1,1-dimethylethyl)-N-{[1-ethyl-6-methyl-4-(tetrahydro-2H-pyran-4-ylamino)-1H-pyrazolo[3,4-b]pyridin-5-yl]methyl}-2-hydroxybenzamide] | 0.01 to 0.1 |
| CCn1ncc2c(NC3CCOCC3)c(CNC(=O)c3ccc4c(=O)[nH][nH]c4c3)c(C)nc21 [Example 286, N-{[1-ethyl-6-methyl-4-(tetrahydro-2H-pyran-4-ylamino)-1H-pyrazolo[3,4-b]pyridin-5-yl]methyl}-3-oxo-2,3-dihydro-1H-indazole-6-carboxamide] | 0.126 to 1 |
| CCn1ncc2c(NC3CCOCC3)c(CNC(=O)c3ccc4c(c3)CCCS4(=O)=O)c(C)nc21 [Example 287, N-{[1-ethyl-6-methyl-4-(tetrahydro-2H-pyran-4-ylamino)-1H-pyrazolo[3,4-b]pyridin-5-yl]methyl}-3,4-dihydro-2H-1-benzothiopyran-6-carboxamide 1,1-dioxide] | 0.126 to 1 |
| CCn1ncc2c(NC3CCOCC3)c(CNC(=O)c3ccc(N4CCCC4=O)cc3)c(C)nc21 [Example 288, N-{[1-ethyl-6-methyl-4-(tetrahydro-2H-pyran-4-ylamino)-1H-pyrazolo[3,4-b]pyridin-5-yl]methyl}-4-(2-oxo-1-pyrrolidinyl)benzamide] | 0.01 to 0.1 |
| CCc1nc2c(cnn2CC)c(NC2CCOCC2)c1CNC(=O)N1CCCC1 [Example 289, N-{[1,6-diethyl-4-(tetrahydro-2H-pyran-4-ylamino)-1H-pyrazolo[3,4-b]pyridin-5-yl]methyl}-1-pyrrolidinecarboxamide] | 0.126 to 1 |
| CCc1nc2c(cnn2CC)c(NC2CCOCC2)c1CNC(=O)N1CCCCC1 [Example 290, N-{[1,6-diethyl-4-(tetrahydro-2H-pyran-4-ylamino)-1H-pyrazolo[3,4-b]pyridin-5-yl]methyl}-1-piperidinecarboxamide] | 0.126 to 1 |
| CCn1ncc2c(NC3CCOCC3)c(CN3Cc4ccccc4C3=O)c(C)nc21 [Example 300, 2-{[1-ethyl-6-methyl-4-(tetrahydro-2H-pyran-4-ylamino)-1H-pyrazolo[3,4-b]pyridin-5-yl]methyl}-2,3-dihydro-1H-isoindol-1-one] | 0.126 to 1 |
| CCn1ncc2c(NC3CCOCC3)c(CN3Cc4occc4C3=O)c(C)nc21 [Example 301, 5-{[1-ethyl-6-methyl-4-(tetrahydro-2H-pyran-4-ylamino)-1H-pyrazolo[3,4-b]pyridin-5-yl]methyl}-5,6-dihydro-4H-furo[2,3-c]pyrrol-4-one] | 0.126 to 1 |
| CCc1nc2c(cnn2CC)c(NC2CCN(C(N)=O)CC2)c1CNC(=O)c1ccc(C(C)(C)C)cc1O [Example 302, 4-({5-[({[4-(1,1-dimethylethyl)-2-hydroxyphenyl]carbonyl}amino)-methyl]-1,6-diethyl-1H-pyrazolo[3,4-b]pyridin-4-yl}amino)-1-piperidine-carboxamide Formate] | 0.01 to 0.1 |
| CCn1ncc2c(NC3CCN(C(N)=O)CC3)c(CNC(=O)c3ccc(N4CCOCC4)cc3)c(C)nc21 [Example 303, 4-({1-ethyl-6-methyl-5-[({[4-(4-morpholinyl)phenyl]-carbonyl}amino)methyl]-1H-pyrazolo[3,4-b]pyridin-4-yl}amino)-1-piperidine-carboxamide, Formate Salt] | 0.01 to 0.1 |
| CCc1nc2c(cnn2CC)c(NC2CCN(C(N)=O)CC2)c1CNC(=O)c1ccc(NC(C)=O)c2c1OCC2 [Example 304, 4-({5-[({[4-(acetylamino)-2,3-dihydro-1-benzofuran-7-yl]carbonyl}amino)methyl]-1,6-diethyl-1H-pyrazolo[3,4-b]pyridin-4-yl}amino)-1-piperidinecarboxamide] | 0.01 to 0.1 |
| CCn1ncc2c(NC3CCN(C(N)=O)CC3)c(CNC(=O)c3ccc(NC(C)=O)c4c3OCC4)c(C)nc21 [Example 305, 4-({5-[({[4-(acetylamino)-2,3-dihydro-1-benzofuran-7-yl]carbonyl}amino)methyl]-1-ethyl-6-methyl-1H-pyrazolo[3,4-b]pyridin-4-yl}amino)-1-piperidinecarboxamide] | 0.01 to 0.1 |

Second part, the compound after the results:

| IC50 [nM] | Compound |
| --- | --- |
| 0.01 to 0.1 | CCc1nc2c(cnn2CC)c(NC2CCOCC2)c1CNC(=O)c1ccc(NC(C)=O)c2c1OCC2 [Example 306, 4-(acetylamino)-N-{[1,6-diethyl-4-(tetrahydro-2H-pyran-4-ylamino)-1H-pyrazolo[3,4-b]pyridin-5-yl]methyl}-2,3-dihydro-1-benzofuran-7-carboxamide] |
| 0.126 to 1 | CCc1nc2c(cnn2CC)c(NC2CCOCC2)c1CNC(=O)c1ccc(F)cc1 [Example 307, N-{[1,6-diethyl-4-(tetrahydro-2H-pyran-4-ylamino)-1H-pyrazolo[3,4-b]pyridin-5-yl]methyl}-4-fluorobenzamide] |
| 0.126 to 1 | CCc1nc2c(cnn2CC)c(NC2CCOCC2)c1CNC(=O)c1ccc(F)cc1F [Example 308, N-{[1,6-diethyl-4-(tetrahydro-2H-pyran-4-ylamino)-1H-pyrazolo[3,4-b]pyridin-5-yl]methyl}-2,4-difluorobenzamide] |
| 0.126 to 1 | CCc1nc2c(cnn2CC)c(NC2CCOCC2)c1CNC(=O)c1csc(C)n1 [Example 309, N-{[1,6-diethyl-4-(tetrahydro-2H-pyran-4-ylamino)-1H-pyrazolo[3,4-b]pyridin-5-yl]methyl}-2-methyl-1,3-thiazole-4-carboxamide] |
| 0.126 to 1 | CCc1nc2c(cnn2CC)c(NC2CCOCC2)c1CNC(=O)c1coc(C)n1 [Example 310, N-{[1,6-diethyl-4-(tetrahydro-2H-pyran-4-ylamino)-1H-pyrazolo[3,4-b]pyridin-5-yl]methyl}-2-methyl-1,3-oxazole-4-carboxamide] |
| 0.01 to 0.1 | CCc1nc2c(cnn2CC)c(NC2CCOCC2)c1CNC(=O)c1cnc(C)s1 [Example 311, N-{[1,6-diethyl-4-(tetrahydro-2H-pyran-4-ylamino)-1H-pyrazolo[3,4-b]pyridin-5-yl]methyl}-2-methyl-1,3-thiazole-5-carboxamide] |
| 0.126 to 1 | CCn1ncc2c(NC3CCOCC3)c(CNC(=O)c3ccc(F)cc3F)c(C)nc21 [Example 312, N-{[1-ethyl-6-methyl-4-(tetrahydro-2H-pyran-4-ylamino)-1H-pyrazolo[3,4-b]pyridin-5-yl]methyl}-2,4-difluorobenzamide] |
| 0.126 to 1 | CCn1ncc2c(NC3CCOCC3)c(CNC(=O)c3ccc(F)cc3)c(C)nc21 [Example 313, N-{[1-ethyl-6-methyl-4-(tetrahydro-2H-pyran-4-ylamino)-1H-pyrazolo[3,4-b]pyridin-5-yl]methyl}-4-fluorobenzamide] |
| 0.126 to 1 | CCn1ncc2c(NC3CCOCC3)c(CN3Cc4ccc(F)cc4C3=O)c(C)nc21 [Example 314, 2-{[1-ethyl-6-methyl-4-(tetrahydro-2H-pyran-4-ylamino)-1H-pyrazolo[3,4-b]pyridin-5-yl]methyl}-6-fluoro-2,3-dihydro-1H-isoindol-1-one] |
| 0.01 to 0.1 | CCc1nc2c(cnn2CC)c(NC2CCOCC2)c1CN1Cc2ccc(F)cc2C1=O [Example 315, 2-{[1,6-diethyl-4-(tetrahydro-2H-pyran-4-ylamino)-1H-pyrazolo[3,4-b]pyridin-5-yl]methyl}-6-fluoro-2,3-dihydro-1H-isoindol-1-one] |
| 0.01 to 0.1 | CCn1ncc2c(NC3CCOCC3)c(CN3Cc4ccc(C(F)(F)F)cc4C3=O)c(C)nc21 [Example 316, 2-{[1-ethyl-6-methyl-4-(tetrahydro-2H-pyran-4-ylamino)-1H-pyrazolo[3,4-b]pyridin-5-yl]methyl}-6-(trifluoromethyl)-2,3-dihydro-1H-isoindol-1-one] |
